Here are results for 27 molecules from patent publication US20210078988A1, “MODULATORS OF INDOLEAMINE 2,3-DIOXYGENASE” (GLAXOSMITHKLINE INTELLECTUAL PROPERTY DEVELOPMENT LIMITED, priority 2017, published 2021).

SMILES strings stand for the structures.

T1 sequence (P14902 whole entry): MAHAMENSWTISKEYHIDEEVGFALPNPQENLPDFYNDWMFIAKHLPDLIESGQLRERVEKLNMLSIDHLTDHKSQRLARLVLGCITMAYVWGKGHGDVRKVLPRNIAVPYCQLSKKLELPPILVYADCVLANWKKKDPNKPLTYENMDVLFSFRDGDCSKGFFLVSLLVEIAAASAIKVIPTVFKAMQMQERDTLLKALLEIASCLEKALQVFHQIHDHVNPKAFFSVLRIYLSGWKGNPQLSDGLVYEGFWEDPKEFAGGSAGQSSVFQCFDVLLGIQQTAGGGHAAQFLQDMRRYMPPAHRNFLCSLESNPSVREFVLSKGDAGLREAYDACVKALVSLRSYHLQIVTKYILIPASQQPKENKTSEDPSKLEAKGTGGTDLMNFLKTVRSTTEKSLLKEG

The test concerns the target T1, indoleamine 2, 3-dioxygenase (IDO1) (Homo sapiens, UniProt P14902).
T1 construct: human peripheral blood mononuclear cells (PBMC) (PB003F; host or cells: human PBMC stimulated with IFN-gamma and LPS
Kind of test: PBMC IDO1 assay (kynurenine detection via mass spectrometry). The test is classed as cell-based. Particulars: human PBMC stimulated with IFN-γ and LPS, 2 days, kynurenine by mass spectrometry; read-out: IDO1 PBMC pIC50 (converted). How it is done:
Compounds of the present invention were tested via high-throughput cellular assays utilizing detection of kynurenine via mass spectrometry and cytotoxicity as end-points. For the mass spectrometry and cytotoxicity assays, human peripheral blood mononuclear cells (PBMC) (PB003F; AIICells®, Alameda, Calif.) were stimulated with human interferon-γ (IFN-γ) (Sigma-Aldrich Corporation, St. Louis, Mo.) and lipopolysaccharide from Salmonella minnesota (LPS) (Invivogen, San Diego, Calif.) to induce the expression of indoleamine 2, 3-dioxygenase (IDO1). Compounds with IDO1 inhibitory properties decreased the amount of kynurenine produced by the cells via the tryptophan catabolic pathway. Cellular toxicity due to the effect of compound treatment was measured using CellTiter-Glo® reagent (CTG) (Promega Corporation, Madison, Wis.), which is based on luminescent detection of ATP, an indicator of metabolically active cells.
In preparation for the assays, test compounds were serially diluted 3-fold in DMSO from a typical top concentration of 5 mM and plated at 0.5 μL in 384-well, polystyrene, clear bottom, tissue culture treated plates with lids (Greiner Bio-One, Kremsmunster, Austria) to generate 11-point dose response curves. Low control wells (0% kynurenine or 100% cytotoxicity) contained either 0.5 μL of DMSO in the presence of unstimulated (-IFN-γ/-LPS) PBMCs for the mass spectrometry assay or 0.5 μL of DMSO in the absence of cells for the cytotoxicity assay, and high control wells (100% kynurenine or 0% cytotoxicity) contained 0.5 μL of DMSO in the presence of stimulated (+IFN-γ/+LPS) PBMCs for both the mass spectrometry and cytotoxicity assays.
Frozen stocks of PBMCs were washed and recovered in RPMI 1640 medium (Thermo Fisher Scientific, Inc., Waltham, Mass.) supplemented with 10% v/v heat-inactivated fetal bovine serum (FBS) (Thermo Fisher Scientific, Inc., Waltham, Mass.), and 1× penicillin-streptomycin antibiotic solution (Thermo Fisher Scientific, Inc., Waltham, Mass.). The cells were diluted to 1,000,000 cells/mL in the supplemented RPMI 1640 medium. 50 μL of either the cell suspension, for the mass spectrometry assay, or medium alone, for the cytotoxicity assay, were added to the low control wells, on the previously prepared 384-well compound plates, resulting in 50,000 cells/well or 0 cells/well respectively. IFN-γ and LPS were added to the remaining cell suspension at final concentrations of 100 ng/ml and 50 ng/ml respectively, and 50 μL of the stimulated cells were added to all remaining wells on the 384-well compound plates. The plates, with lids, were then placed in a 37° C., 5% CO2 humidified incubator for 2 days.
Following incubation, the 384-well plates were removed from the incubator and allowed to equilibrate to room temperature for 30 minutes. For the cytotoxicity assay, CellTiter-Glo® was prepared according to the manufacturer's instructions, and 40 μL were added to each plate well. After a twenty minute incubation at room temperature, luminescence was read on an EnVision® Multilabel Reader (PerkinElmer Inc., Waltham, Mass.). For the mass spectrometry assay, 10 μL of supernatant from each well of the compound-treated plates were added to 40 μL of acetonitrile, containing 10 μM of an internal standard for normalization, in 384-well, polypropylene, V-bottom plates (Greiner Bio-One, Kremsmunster, Austria) to extract the organic analytes. Following centrifugation at 2000 rpm for 10 minutes, 10 μL from each well of the acetonitrile extraction plates were added to 90 μL of sterile, distilled H2O in 384-well, polypropylene, V-bottom plates for analysis of kynurenine and the internal standard on the RapidFire 300 (Agilent Technologies, Santa Clara, Calif.) and 4000 QTRAP MS (SCIEX, Framingham, Mass.). MS data were integrated using Agilent Technologies' RapidFire Integrator software, and data were normalized for analysis as a ratio of kynurenine to the internal standard. […]
Take `CCN(C)c1nnc(C(CC2CCN(C(=O)OC(C)(C)C)CC2)NC(=O)c2ccc(C)s2)o1` (stereo not drawn) [Example 52, tert-butyl 4-(2-(5-(ethyl(methyl)amino)-1,3,4-oxadiazol-2-yl)-2-(5-methylthiophene-2-carboxamido)ethyl)piperidine-1-carboxylate]: the IC50 was 10 nM.

In the case of `CCN(CC)c1nnc(C(CC2CCN(C(=O)Oc3ccccc3)CC2)NC(=O)c2ccc(Cl)s2)o1` (stereo not drawn) [Example 53, phenyl 4-(2-(5-chlorothiophene-2-carboxamido)-2-(5-(diethylamino)-1,3,4-oxadiazol-2-yl)ethyl)piperidine-1-carboxylate], the IC50 is 3.16 nM.

On to `COc1ccc(C(CC2CCN(C(=O)OC(C)(C)C)CC2)NC(=O)c2ccc(F)cc2)cn1` (stereo not drawn) [Example 54, tert-butyl 4-(2-(4-fluorobenzamido)-2-(6-methoxypyridin-3-yl)ethyl)piperidine-1-carboxylate], for which the IC50 was 12.6 nM.

As for `COc1ccc(C(CC2CCN(C(=O)OC(C)C)CC2)NC(=O)c2ccc(F)cc2)cn1` (stereo not drawn) [Example 55, isopropyl 4-(2-(4-fluorobenzamido)-2-(6-methoxypyridin-3-yl)ethyl)piperidine-1-carboxylate], the IC50 is 12.6 nM.

As to `COc1ccc(C(CC2CCN(C(=O)OCC(C)C)CC2)NC(=O)c2ccc(F)cc2)cn1` (stereo not drawn) [Example 56, isobutyl 4-(2-(4-fluorobenzamido)-2-(6-methoxypyridin-3-yl)ethyl)piperidine-1-carboxylate], the IC50 was 12.6 nM.

With `CC(C)(C)OC(=O)N1CCC(CC(NC(=O)c2ccc(Br)cc2)c2ccccc2)CC1` (stereo not drawn) [Example 57, tert-butyl 4-(2-(4-bromobenzamido)-2-phenylethyl)piperidine-1-carboxylate], the IC50 is 12.6 nM.

As for `CC(C)(C)OC(=O)N1CCC(CC(NC(=O)c2ccc(F)s2)c2ccccc2)CC1` (stereo not drawn) [Example 58, tert-butyl 4-(2-(5-fluorothiophene-2-carboxamido)-2-phenylethyl)piperidine-1-carboxylate], the IC50 is 12.6 nM.

In the case of `Cc1ccc(C(=O)NC(CC2CCN(C(=O)OC(C)(C)C)CC2)C2CCCC2)s1` (stereo not drawn) [Example 59, tert-butyl 4-(2-cyclopentyl-2-(5-methylthiophene-2-carboxamido)ethyl)piperidine-1-carboxylate], the IC50 is 12.6 nM.

With `CCc1ccc(C(=O)NC(CC(C)C)CC2CCN(C(=O)OC(C)(C)C)CC2)s1` (stereo not drawn) [Example 60, tert-butyl 4-(2-(5-ethylthiophene-2-carboxamido)-4-methylpentyl)piperidine-1-carboxylate], the IC50 is 12.6 nM.

With `O=C(NC(CC1CCN(C(=O)OC2CCC2)CC1)c1ccccc1)c1ccc(Cl)cc1` (stereo not drawn) [Example 61, cyclobutyl 4-(2-(4-chlorobenzamido)-2-phenylethyl)piperidine-1-carboxylate], the IC50 is 12.6 nM.

Take `C#CCOC(=O)N1CCC(CC(NC(=O)c2ccc(Cl)cc2)c2ccccc2)CC1` (stereo not drawn) [Example 62, prop-2-yn-1-yl 4-(2-(4-chlorobenzamido)-2-phenylethyl)piperidine-1-carboxylate]: the IC50 is 12.6 nM.

On to `CC(C)(C)OC(=O)N1CCC(C[C@H](NC(=O)c2ccc(Br)cc2)C2CC2)CC1` [Example 63, (S)-tert-butyl 4-(2-(4-bromobenzamido)-2-cyclopropylethyl)piperidine-1-carboxylate], for which the IC50 was 12.6 nM.

As to `CC(C)(C)OC(=O)N1CCC(CC(NC(=O)c2ccc(Cl)s2)C2CCCCC2)CC1` (stereo not drawn) [Example 64, tert-butyl 4-(2-(5-chlorothiophene-2-carboxamido)-2-cyclohexylethyl)piperidine-1-carboxylate], the IC50 was 12.6 nM.

In the case of `CC(C)(C)OC(=O)N1CCC(C[C@H](NC(=O)c2ccc(Cl)cc2)c2ccccc2)CC1` [Example 65, (S)-tert-butyl 4-(2-(4-chlorobenzamido)-2-phenylethyl)piperidine-1-carboxylate], the IC50 is 12.6 nM.

For `CCOC(=O)N1CCC(C[C@H](NC(=O)c2ccc(CC)s2)c2ccccc2)CC1` [Example 66, (S)-ethyl 4-(2-(5-ethylthiophene-2-carboxamido)-2-phenylethyl)piperidine-1-carboxylate], the IC50 was 12.6 nM.

`CC(C)CC(CC1CCN(C(=O)Oc2ccccc2)CC1)NC(=O)c1ccc(Cl)cc1` (stereo not drawn) [Example 67, phenyl 4-(2-(4-chlorobenzamido)-4-methylpentyl)piperidine-1-carboxylate]: the IC50 is 12.6 nM.

For `CC(C)(C)OC(=O)N1CCC(CC(NC(=O)c2ccc(Cl)cc2)c2ccccc2)CC1` (stereo not drawn) [Example 68, tert-butyl 4-(2-(4-chlorobenzamido)-2-phenylethyl)piperidine-1-carboxylate], the IC50 was 15.8 nM.

For `Cc1ccc(C(=O)NC(CC2CCN(C(=O)OC(C)(C)C)CC2)c2ccccc2)s1` (stereo not drawn) [Example 69, tert-butyl 4-(2-(5-methylthiophene-2-carboxamido)-2-phenylethyl)piperidine-1-carboxylate], the IC50 is 15.8 nM.

Consider `COc1ccc([C@@H](CC2CCN(C(=O)OC(C)(C)C)CC2)NC(=O)c2ccc(Cl)s2)cn1` [Example 70, (R)-tert-butyl 4-(2-(5-chlorothiophene-2-carboxamido)-2-(6-methoxypyridin-3-yl)ethyl)piperidine-1-carboxylate], for which the IC50 is 15.8 nM.

For the molecule `CC(C)(C)OC(=O)N1CCC(CC(NC(=O)c2ccc(Br)c(F)c2)c2ccccc2)CC1` (stereo not drawn) [Example 71, tert-butyl 4-(2-(4-bromo-3-fluorobenzamido)-2-phenylethyl)piperidine-1-carboxylate], the IC50 is 15.8 nM.

On to `CC(C)(C)OC(=O)N1CCC(CC(NC(=O)c2ccc(I)cc2)c2ccccc2)CC1` (stereo not drawn) [Example 72, tert-butyl 4-(2-(4-iodobenzamido)-2-phenylethyl)piperidine-1-carboxylate], for which the IC50 is 15.8 nM.

Regarding `CN(C)c1nnc(C(CC2CCN(C(=O)OC(C)(C)C)CC2)NC(=O)c2ccc(Cl)s2)o1` (stereo not drawn) [Example 73, tert-butyl 4-(2-(5-chlorothiophene-2-carboxamido)-2-(5-(dimethylamino)-1,3,4-oxadiazol-2-yl)ethyl)piperidine-1-carboxylate], the IC50 is 15.8 nM.

As for `CC(C)C(CC1CCN(C(=O)OC(C)(C)C)CC1)NC(=O)c1ccc(Br)cc1` (stereo not drawn) [Example 74, tert-butyl 4-(2-(4-bromobenzamido)-3-methylbutyl)piperidine-1-carboxylate], the IC50 is 15.8 nM.

Turning to `CC(C)CC(CC1CCN(C(=O)OC(C)(C)C)CC1)NC(=O)c1ccc(Cl)cc1` (stereo not drawn) [Example 75, tert-butyl 4-(2-(4-chlorobenzamido)-4-methylpentyl)piperidine-1-carboxylate], the IC50 is 15.8 nM.

For `CC(C)CC(CC1CCN(C(=O)OC(C)(C)C)CC1)NC(=O)c1ccc(F)cc1` (stereo not drawn) [Example 76, tert-butyl 4-(2-(4-fluorobenzamido)-4-methylpentyl)piperidine-1-carboxylate], the IC50 was 15.8 nM.

With `O=C(NC(CC1CCN(C(=O)OC2CC2)CC1)c1ccccc1)c1ccc(Cl)cc1` (stereo not drawn) [Example 77, cyclopropyl 4-(2-(4-chlorobenzamido)-2-phenylethyl)piperidine-1-carboxylate], the IC50 is 15.8 nM.

With `CCc1ccc(C(=O)NC(CC2CCN(C(=O)OC(C)(C)C)CC2)C2CCCC2)s1` (stereo not drawn) [Example 78, tert-butyl 4-(2-cyclopentyl-2-(5-ethylthiophene-2-carboxamido)ethyl)piperidine-1-carboxylate], the IC50 was 15.8 nM.
